In US5614520A, “2-arylthiazole derivatives and pharmaceutical composition thereof” (priority 1990, dated 1997):
pIC50: −log10 of the molar value.

How the values were obtained:
xanthine oxidase = target: T1, xanthine oxidase (Bos taurus, UniProt P80457); assay: In vitro determination of xanthine oxidase (XOD) inhibition; type: biochemical; conditions: xanthine oxidase from butter milk, xanthine substrate, pH 7.4, 37° C.
T1 construct: purchased Sigma Chemical Company; host or cells: butter milk
Description: (1) Preparation of test compounds:
Test compounds (compounds of Ex. No. listed in Table 1) were dissolved in dimethylsulfoxide and diluted with a 50 mM phosphate buffer to prepare aqueous solutions respectively having predetermined concentrations.
The inhibition rate was determined by the following equation: [formula]
The inhibition (%) was determined on each test compound prepared according to (1), and the IC50 value on the xanthine oxidase (XOD) inhibition was calculated from the value of inhibition.

interleukin 1 production = assay: Interleukin 1 production inhibitory activity (LPS, abdominal exuded macrophage, ELISA); type: cell-based, BALB/c mouse; conditions: 10^-6 M, 1 μg/ml LPS, 24 hours, mouse macrophage
Description: 1 ml of a 5% oyster glycogen solution was intra-abdominally administered to a BALB/c mouse (male, 8 weeks in age), and 4 days after the administration, the infiltrated abdominal exuded cells were adhered to a plastic dish for 2 hours, and 1 μg/ml of LPS was allowed to act on macrophage (1×10^6 cells). Interleukin 1 extricated on the supernatant in 24 hours was measured by an ELISA technique. The test compound (compounds of Ex. No. described in Table 3) was prepared so as to have a concentration of 10^-6 M, and the interleukin 1 production inhibitory activity was, expressed in terms of the percentage inhibition based on the amount of production of the control.

serum uric acid = assay: Determination of oral administration: lowering of serum uric acid in mice; type: in vivo, ICR male mice; conditions: Mus musculus; ICR male mice, oral, 1 mg/kg, 2 hours after administration, serum; read-out: Activity of lowering uric acid
Description: Test compounds suspended in a 5% gum arabic solution was forcibly administered by oral administration (compounds of Ex. No. of Table 2, dose: 1 mg/kg) to ICR male mice (age: about 7 weeks) (one group: 6 mice) by means of an oral probe. 2 hours after the administration, thoracotomy was conducted under etherization to collect blood from the heart, and serum was removed by a conventional process. The serum uric acid was measured by a biochemical automatic analyzer (Flexigem; Electro-Nucleonics, Inc.) by using a uric acid measurement kit (UA reagent; International Reagent) to determine the percentage of the lowering of uric acid. [formula]

T1 sequence (P80457 whole entry): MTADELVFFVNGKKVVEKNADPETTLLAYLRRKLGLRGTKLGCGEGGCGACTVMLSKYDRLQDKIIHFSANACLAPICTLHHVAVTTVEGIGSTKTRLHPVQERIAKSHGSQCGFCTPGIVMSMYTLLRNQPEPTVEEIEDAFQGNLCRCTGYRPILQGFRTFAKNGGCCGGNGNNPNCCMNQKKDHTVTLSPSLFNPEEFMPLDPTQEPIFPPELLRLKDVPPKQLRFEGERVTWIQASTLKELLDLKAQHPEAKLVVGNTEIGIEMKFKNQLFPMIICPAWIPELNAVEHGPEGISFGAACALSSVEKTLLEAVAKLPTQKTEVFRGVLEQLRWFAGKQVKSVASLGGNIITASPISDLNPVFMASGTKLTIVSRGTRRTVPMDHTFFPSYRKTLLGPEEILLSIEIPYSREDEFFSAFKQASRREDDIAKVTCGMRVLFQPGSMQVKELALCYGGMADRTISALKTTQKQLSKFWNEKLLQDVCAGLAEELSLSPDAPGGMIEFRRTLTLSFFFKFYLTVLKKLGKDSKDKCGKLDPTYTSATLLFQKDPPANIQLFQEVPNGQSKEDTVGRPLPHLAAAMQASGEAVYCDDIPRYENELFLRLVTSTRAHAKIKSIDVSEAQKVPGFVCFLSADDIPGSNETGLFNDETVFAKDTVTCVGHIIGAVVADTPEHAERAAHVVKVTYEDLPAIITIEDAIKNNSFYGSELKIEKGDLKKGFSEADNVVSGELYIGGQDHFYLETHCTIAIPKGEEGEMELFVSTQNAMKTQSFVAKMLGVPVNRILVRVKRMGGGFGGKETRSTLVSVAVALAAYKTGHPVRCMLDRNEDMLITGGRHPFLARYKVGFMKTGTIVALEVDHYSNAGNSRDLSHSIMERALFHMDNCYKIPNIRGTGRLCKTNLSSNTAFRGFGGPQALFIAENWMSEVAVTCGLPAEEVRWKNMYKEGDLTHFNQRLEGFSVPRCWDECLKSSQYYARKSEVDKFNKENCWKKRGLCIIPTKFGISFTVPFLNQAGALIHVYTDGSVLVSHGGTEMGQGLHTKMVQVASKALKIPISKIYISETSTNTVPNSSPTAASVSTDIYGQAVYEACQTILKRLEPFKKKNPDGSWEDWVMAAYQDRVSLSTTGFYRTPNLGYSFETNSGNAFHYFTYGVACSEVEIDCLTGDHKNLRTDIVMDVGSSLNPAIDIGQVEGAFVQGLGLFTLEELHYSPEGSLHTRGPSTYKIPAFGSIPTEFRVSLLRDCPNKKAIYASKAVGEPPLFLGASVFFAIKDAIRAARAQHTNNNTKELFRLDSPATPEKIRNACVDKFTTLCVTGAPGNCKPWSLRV

Structure (SMILES) | pIC50 (xanthine oxidase) | inhibition at 1 µM (interleukin 1 production) | inhibition in vivo at 1 mg/kg (serum uric acid)
CC(C)Oc1ccc(-c2nc(O)c(C(=O)O)s2)cc1 [Example 22, 4-Hydroxy-2-(4-isopropoxyphenyl)-5-thiazolecarboxylic acid] | 7.35 | 45% | 
Cc1nc(-c2ccc(OCCC(C)C)c([N+](=O)[O-])c2)sc1C(=O)O [Example 40, 2-(4-Isopentyloxy-3-nitrophenyl)-4-methyl-5-thiazolecarboxylic acid] | 9.17 | 36% | 85%
Cc1ccc(C(=O)c2ccc(-c3nc(C)c(C(=O)O)s3)cc2)cc1 [Example 74, 4-Methyl-2-(4-(4-methylbenzoyl)phenyl)-5-thiazolecarboxylic acid] | 8.32 | 52% | 39%
Cc1nc(-c2ccc(OCC(=O)O)cc2)sc1C(=O)O [Example 11, 2-(4-Carboxymethyloxyphenyl)-4-methyl-5-thiazolecarboxylic acid] | 7.11 | 23% | 
CCOCCOc1ccc(-c2nc(C)c(C(=O)O)s2)cc1Br [Example 64, 2-(3-Bromo-4-(2-ethoxyethyloxy)phenyl)-4-methyl-5-thiazolecarboxylic acid] | 8.54 | 28% | 25%
Cc1nc(-c2ccc(OCCC(C)C)c(Cl)c2)sc1C(=O)O [Example 52, 2-(3-Chloro-4-isopentyloxyphenyl)-4-methyl-5-thiazolecarboxylic acid] | 8.57 | 33% | 47%
Cc1nc(-c2cccc(OC(C)C)c2)sc1C(=O)O [Example 1, 2-(3-isopropoxyphenyl)-4-methyl-5-thiazolecarboxylic acid] | 7.17 | 83% | 
Cc1nc(-c2ccc(C(=O)O)cc2)sc1C(=O)O [Example 14, 2-(4-Carboxyphenyl)-4-methyl-5-thiazolecarboxylic acid] | 8.49 | 35% | 
Cc1nc(-c2ccc(OCC3CCCCC3)cc2)sc1C(=O)O [Example 7, 2-(4-Cyclohexylmethyloxyphenyl)-4-methyl-5-thiazolecarboxylic acid] | 7.34 | 39% | 
Cc1nc(-c2ccc(N3CCCCC3)c(Cl)c2)sc1C(=O)O [Example 60, 2-(3-Chloro-4-piperidinophenyl)-4-methyl-5-thiazolecarboxylic acid] | 9.62 |  | 55%
Cc1nc(-c2ccc(N3CCCCC3)c([N+](=O)[O-])c2)sc1C(=O)O [Example 44, 4-methyl-2-(3-nitro-4-piperidinophenyl)-5-thiazolecarboxylic acid] | 8.80 | 22% | 83%
Cc1nc(-c2ccc(N3CCCCC3)c(C#N)c2)sc1C(=O)O [Example 82, 2-(3-Cyano-4-piperidinophenyl)-4-methyl-5-thiazolecarboxylic acid] | 8.57 |  | 93%
Cc1nc(-c2ccc(OCC(C)C)c(C(F)(F)F)c2)sc1C(=O)O [Example 83, 2-(4-isobutyloxy-3-trifluomethylphenyl)-4-methyl-5-thiazolecarboxylic acid] | 8.96 |  | 86%
CCOc1ccc(-c2nc(C)c(C(=O)O)s2)cc1Cl [Example 49, 2-(3-chloro-4-ethoxyphenyl)-4-methyl-5-thiazolecarboxylic acid] | 8.64 | 48% | 35%
CCOCCOc1ccc(-c2nc(C)c(C(=O)O)s2)cc1[N+](=O)[O-] [Example 39, 2-(4-(2-Ethoxyethyloxy)-3-nitrophenyl)-4-methyl-5-thiazolecarboxylic acid] | 8.54 |  | 82%
